From ChEMBL document CHEMBL1122888, “22-Hydroxycholesterol derivatives as HMG CoA reductase suppressors and serum cholesterol lowering agents” (1985)

Columns and labels:
[1] = target: T1, 3-hydroxy-3-methylglutaryl-coenzyme A reductase (Homo sapiens) (UniProt P04035); assay: Evaluated for serum cholesterol levels in the 14 day treated primate (male rhesus monkeys) at dose (10 mg/kg/day, ig) over a 2-week period; format: functional, organism-based; settings: Cercopithecidae; target entry is the homologue from another species
T1 sequence (whole entry): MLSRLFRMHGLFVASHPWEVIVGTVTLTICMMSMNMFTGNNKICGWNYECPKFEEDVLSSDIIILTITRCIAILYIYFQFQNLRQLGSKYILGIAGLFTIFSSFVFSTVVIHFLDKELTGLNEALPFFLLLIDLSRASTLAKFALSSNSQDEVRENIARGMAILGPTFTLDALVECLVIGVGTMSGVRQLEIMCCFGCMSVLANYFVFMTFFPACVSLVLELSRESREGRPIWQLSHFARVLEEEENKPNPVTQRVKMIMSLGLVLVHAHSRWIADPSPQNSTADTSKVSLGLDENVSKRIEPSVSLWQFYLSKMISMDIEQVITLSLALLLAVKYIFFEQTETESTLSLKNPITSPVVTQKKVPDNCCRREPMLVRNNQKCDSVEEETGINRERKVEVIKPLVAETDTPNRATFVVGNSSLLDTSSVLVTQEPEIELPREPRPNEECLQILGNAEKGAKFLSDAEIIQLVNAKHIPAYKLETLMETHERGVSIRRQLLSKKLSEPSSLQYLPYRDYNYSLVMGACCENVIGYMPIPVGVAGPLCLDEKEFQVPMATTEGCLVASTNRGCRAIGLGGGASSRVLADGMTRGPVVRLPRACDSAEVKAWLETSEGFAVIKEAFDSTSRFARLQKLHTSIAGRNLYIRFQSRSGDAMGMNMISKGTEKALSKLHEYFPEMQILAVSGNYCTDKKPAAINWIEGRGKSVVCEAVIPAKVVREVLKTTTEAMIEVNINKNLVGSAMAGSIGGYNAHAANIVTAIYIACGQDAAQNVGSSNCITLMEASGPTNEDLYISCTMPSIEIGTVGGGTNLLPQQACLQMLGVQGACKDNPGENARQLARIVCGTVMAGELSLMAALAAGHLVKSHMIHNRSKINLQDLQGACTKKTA

[2] = test system: HMG-CoA reductase (Rattus norvegicus); assay: Evaluated for the percent suppression of elevated liver HMG-CoA reductase in Diazoesterol treated rats
Monkey [3] = assay: Evaluated for serum cholesterol VLDL levels in the 14 day treated monkey at dose (10 mg/kg/day, ig) over a 2-week period; format: functional, Cercopithecidae
Monkey [4] = assay: Evaluated for serum lipoprotein HDL levels in the 14 day treated rhesus monkey at dose (10 mg/kg/day, ig) over a 2-week period; format: functional, Cercopithecidae; set-up: reference not given here
Rattus norvegicus [5] = organism: Rattus norvegicus; assay: Minimum effective dose necessary to produce >=25% decrease of elevated liver HMG CoA reductage levels in diazasterol treated rats; format: functional; settings: read-out: MED
[6] = target: T1, 3-hydroxy-3-methylglutaryl-coenzyme A reductase (Homo sapiens); assay: Evaluated in human fibroblast tissue culture assays for suppression of HMG-CoA reductase at concentration of 1 ug/mL.
Monkey [7] = assay: Evaluated for serum lipoprotein LDL levels in the 14 day treated monkey at dose (10 mg/kg/day, ig) over a 2-week period; format: functional, Cercopithecidae; set-up: reference not given here
[8] = target: T1, 3-hydroxy-3-methylglutaryl-coenzyme A reductase (Homo sapiens); assay: Evaluated for serum cholesterol levels in the 14 day treated rhesus monkeys at dose (10 mg/kg/day, ig) over a 2-week period; format: functional, organism-based; settings: Cercopithecidae; target entry is the homologue from another species
Rattus norvegicus [9] = organism: Rattus norvegicus; assay: Minimum effective dose necessary to produce >=25% decrease of elevated liver HMG CoA reductage levels; format: functional; settings: read-out: MED

| SMILES | cholesterol level [1] | Suppression [2] | cholesterol level (Monkey [3]) | Lipoprotein level (Monkey [4]) | minimal effective dose (Rattus norvegicus [5]) | inhibition [6] | Lipoprotein level (Monkey [7]) | cholesterol level [8] | minimal effective dose (Rattus norvegicus [9]) |
| --- | --- | --- | --- | --- | --- | --- | --- | --- | --- |
| C[C@H](C(O)CCC(C)(C)C)C1CCC2C3CC=C4CC(O)CCC4(C)C3CCC21C (stereo partly drawn) | 167 mg/dL | 39% | 6 mg/dL | 66% | 0.5 mg/kg | 95% | 25% |  |  |
| C[C@H](C(O)CCC1CC1)C1CCC2C3CC=C4CC(O)CCC4(C)C3CCC21C (stereo partly drawn) |  | 30% | 4 mg/dL | 68% |  | > 95% | 23% | 179 mg/dL | 0.5 mg/kg |
| C[C@H](C(O)CCC(C)(C)Cl)C1CCC2C3CC=C4CC(O)CCC4(C)C3CCC21C (stereo partly drawn) |  | 28% | 4 mg/dL | 70% |  |  | 22% | 168 mg/dL | 0.2 mg/kg |
| CC(C)CCC(O)[C@@H](C)[C@H]1CC[C@H]2[C@@H]3CC=C4C[C@@H](O)CC[C@]4(C)[C@H]3CC[C@]12C (stereo partly drawn) |  |  |  |  |  |  |  |  | > 30 mg/kg |
| C[C@H](C(O)CCC(C)(C)F)C1CCC2C3CC=C4CC(O)CCC4(C)C3CCC21C (stereo partly drawn) |  | 26% | 8 mg/dL | 61% |  | > 95% | 25% | 150 mg/dL | 0.5 mg/kg |
